Legend:
[1] = target: FLuc-N-HiBiT (firefly luciferase) (Photinus pyralis, UniProt P08659, form not given/L550V); experiment: SDR assay, FLuc-N-HiBiT; conditions: for % Activity (max response) / % Activity (max response, + ATP) / % Activity (max response, - ATP): SDR; for % Activity (max response, + ATP) / % Activity (max response, - ATP) / pSDR50 (clade A'): substituted indoline (clade A')
FLuc-C-HiBiT = target: T1, FLuc-C-HiBiT (Photinus pyralis, UniProt P08659); experiment: biochemical; conditions: enzyme activity, 10 uM ATP; read-out: IC50 or SDR50 (mM) / FLuc E
T1 construct: firefly luciferase with C-terminal HiBiT tag, E. coli expressed

PKA-N-HiBiT = PKA-N-HiBiT (Homo sapiens, UniProt P17612); experiment: SDR assay, PKA-N-HiBiT
[2] = target: T2, ABL1-N-HiBiT kinase domain (Homo sapiens, UniProt P00519); experiment: SDR assay, ABL1-N-HiBiT
T2 sequence (P00519 233-500): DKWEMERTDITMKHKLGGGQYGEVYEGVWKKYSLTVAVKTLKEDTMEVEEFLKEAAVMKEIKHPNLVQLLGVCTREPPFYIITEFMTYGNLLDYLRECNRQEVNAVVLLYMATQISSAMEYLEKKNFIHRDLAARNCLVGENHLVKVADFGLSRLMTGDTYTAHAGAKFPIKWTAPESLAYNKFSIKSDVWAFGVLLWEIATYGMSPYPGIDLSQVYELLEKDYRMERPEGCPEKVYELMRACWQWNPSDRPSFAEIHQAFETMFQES

[3] = ATP-independent pyrazolo pyrimidine (clade P)
[4] = ATP-independent imidazo[2,1-b]thiazole (clade O) series

FLuc-N-HiBiT (firefly luciferase), sequence (P08659 2-550 L550V, form open): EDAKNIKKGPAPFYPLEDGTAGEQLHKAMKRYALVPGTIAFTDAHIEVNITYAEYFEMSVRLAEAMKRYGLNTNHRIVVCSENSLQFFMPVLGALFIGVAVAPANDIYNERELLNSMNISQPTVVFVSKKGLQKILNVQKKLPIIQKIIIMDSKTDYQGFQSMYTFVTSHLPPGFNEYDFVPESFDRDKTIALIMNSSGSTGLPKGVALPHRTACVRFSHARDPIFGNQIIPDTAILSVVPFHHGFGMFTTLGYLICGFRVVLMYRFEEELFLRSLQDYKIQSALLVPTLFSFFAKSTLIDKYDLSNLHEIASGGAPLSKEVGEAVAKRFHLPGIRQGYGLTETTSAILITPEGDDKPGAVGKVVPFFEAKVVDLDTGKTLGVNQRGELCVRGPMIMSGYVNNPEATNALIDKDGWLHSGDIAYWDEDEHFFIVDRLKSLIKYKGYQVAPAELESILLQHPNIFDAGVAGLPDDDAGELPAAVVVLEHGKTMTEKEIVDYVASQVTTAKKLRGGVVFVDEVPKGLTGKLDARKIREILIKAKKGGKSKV
T1 sequence (P08659 whole entry, looked up): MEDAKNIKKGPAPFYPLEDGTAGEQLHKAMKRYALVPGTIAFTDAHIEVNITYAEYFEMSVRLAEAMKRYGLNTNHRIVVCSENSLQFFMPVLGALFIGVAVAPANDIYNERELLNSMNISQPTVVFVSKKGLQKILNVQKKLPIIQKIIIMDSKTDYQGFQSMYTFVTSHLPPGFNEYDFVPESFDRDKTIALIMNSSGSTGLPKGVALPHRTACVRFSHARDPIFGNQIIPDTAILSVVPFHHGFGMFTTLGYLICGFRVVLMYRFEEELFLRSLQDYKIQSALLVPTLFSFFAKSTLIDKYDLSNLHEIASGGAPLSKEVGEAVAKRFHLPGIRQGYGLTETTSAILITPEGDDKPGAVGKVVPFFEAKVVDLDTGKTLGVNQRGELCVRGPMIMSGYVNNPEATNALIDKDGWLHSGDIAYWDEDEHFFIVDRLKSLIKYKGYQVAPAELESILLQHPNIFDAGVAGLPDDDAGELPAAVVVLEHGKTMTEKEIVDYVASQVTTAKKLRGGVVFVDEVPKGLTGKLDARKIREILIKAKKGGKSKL

Structure (SMILES)	% Activity (max response, + ATP) ([1]; + ATP)	% Activity (max response, - ATP) ([1]; - ATP)	pSDR50 (clade A') ([1]; + ATP)	IC50 (FLuc-C-HiBiT)	also measured
CC1CCCN(c2ncnc3c2cnn3-c2ccccc2)C1 (stereo not shown) [Compound 381]					pSDR50 (clade P) [1, 3]: 5.61; % Activity (max response) [1, 3]: 79.86%
Cc1cccc(C)c1-n1c(=O)c2cnc(Nc3ccc(N4CCN(C)CC4)cc3)nc2n2c3ccccc3nc12 [Lck Inhibitor]					EC50 (PKA-N-HiBiT): 4.57 µM
Nc1ncc(-c2cnn(CCO)c2)c2scc(-c3ccc(NC(=O)Nc4cccc(F)c4)cc3)c12 [Ilorasertib]					SDR Ave Max Response (PKA-N-HiBiT; PKA-N-HiBiT qHTS, average): 5.66; SDR Ave Max Response ([2]; ABL1-N-HiBiT qHTS, SDR assay, average maximal response): 123.93
Cc1n[nH]c2ccc(-c3cncc(OC[C@@H](N)Cc4c[nH]c5ccccc45)c3)cc12 [Compound A-443654]					PKA SDR Assay Mean (pSDR50) (PKA-N-HiBiT; without ATP): 6.76
Fc1ccc(Cc2cn3cc(-c4ccc(F)cc4)nc3s2)cc1 [Compound 34]					pSDR50 (clade O) [1, 4]: 6.28; % Activity (max response) [1, 4]: 22.33%
c1ccc(-n2ncc3c(N4CCCCC4)ncnc32)cc1 [Compound 373]					pSDR50 (clade P) [1, 3]: 5.48; % Activity (max response) [1, 3]: 80.68%
Cc1ccc(Cc2cn3cc(-c4ccccc4)nc3s2)cc1 [Compound 98]					pSDR50 (clade O) [1, 4]: 5.78; % Activity (max response) [1, 4]: 56.11%
Cc1ccc(NC(=O)N2CCN(c3nc(N)nc4sc(-c5cccnc5)nc34)CC2)cc1 [PI4KIII beta I 3]					ABL1 SDR pSDR50 ([2]; ABL1, SDR, heatmap data, 128 kinase inhibitors): 4.83

Second part, led by results:

% Activity (max response, + ATP) ([1]; + ATP)	% Activity (max response, - ATP) ([1]; - ATP)	pSDR50 (clade A') ([1]; + ATP)	IC50 (FLuc-C-HiBiT)	Structure (SMILES)	also measured
65.64%	14.85%	5.66	0.00394 mM	O=C(O)c1cccc2c1CCN2C(=O)c1ccccc1 [NCGC00432607-01]	
120.00%	22.45%	5.59	0.00176 mM	Cc1cccc(NC(=O)N2CCc3c(C(=O)N4CCN(C)CC4)cccc32)c1 [NCGC00430118-01]	pSDR50 (clade A') ([1]; - ATP): 3.92
86.92%	21.61%	4.90	0.00785 mM	CCC(C)(C)NC(=O)c1cccc2c1CCN2C(=O)Nc1cccc(C)c1 [NCGC00430120-01]	pSDR50 (clade A') ([1]; - ATP): 2.52
108.30%	19.81%	5.86	0.000785 mM	O=C(NCCc1cccs1)c1cccc2c1CCN2C(=O)Nc1ccc(F)cc1 [NCGC00430196-01]	

Reference: paper PMC12064818, “A general assay platform to study protein pharmacology using ligand-dependent structural dynamics” (Nature Communications, 2025)
